Laboratory results reported in patent US12286625B2, “Inhibition of mir-22 miRNA by APT-110” (AptamiR Therapeutics, Inc., priority 2016, dated 2025).
Where two headings read alike, the source gives them in different places.

Tests used:
[1] = tested on: UCP-1 protein expression in human subcutaneous adipocytes; test: UCP-1 protein expression by immunofluorescence in human subcutaneous adipocytes; type: cell-based; conditions: Day 14; 50 nM APT-110 or 100 nM rosiglitazone; PBS 48±3%
Procedure: To assess the effects of miR-22 inhibition on mitochondrial mass and activity, metabolic rate and energy expenditure, in vitro and in vivo experiments were carried out. In vitro intra-cellular assessment of mitochondrial mass and activities, as well as energy expenditure during miR-22 inhibition of human subcutaneous adipocytes were examined. In the model of primary culture of human subcutaneous adipocytes differentiated for 3 days, then transfected with 50 nM of the miR-22-3p inhibitor APT-110 and maintained in culture (n=6 per condition), the following parameters were assessed on Day 14. […]
(§1) Human subcutaneous preadipocytes purchased from ZenBio, NC (Catalog #: SP-F-SL) were plated at confluence in 96-well plates and allowed to attach overnight in preadipocyte medium (DMEM/Ham's F-12 (1:1, v/v), HEPES buffer, fetal bovine serum and antibiotics) following the supplier's instructions. […] Using a 96-well format, gene expression was determined by q-RT-PCR kit following the Manufacturer's instructions (TaqMan Gene Expression Cells-to-Ct kit, Life Technologies, cat #AM1728) and a 7900 HT Fast Real Time PCR System (Applied Biosystems). […] Mitochondrial mass and activity as well as UCP-1 protein expression were determined by high content imaging (ArrayScan XTI and BMG Fluostar Galaxy reader), with UCP-1 antibody (abcam cat #ab10983), and MitoTracker® Deep Red FM (ThermoFisher M22426).

[2] = tested on: human subcutaneous adipocytes; test: Mitochondrial content/mass by MitoTracker in human subcutaneous adipocytes; type: cell-based; conditions: Day 14; Rosiglitazone 100 nM
Procedure: To assess the effects of miR-22 inhibition on mitochondrial mass and activity, metabolic rate and energy expenditure, in vitro and in vivo experiments were carried out. In vitro intra-cellular assessment of mitochondrial mass and activities, as well as energy expenditure during miR-22 inhibition of human subcutaneous adipocytes were examined. In the model of primary culture of human subcutaneous adipocytes differentiated for 3 days, then transfected with 50 nM of the miR-22-3p inhibitor APT-110 and maintained in culture (n=6 per condition), the following parameters were assessed on Day 14.
as §1

[3] = tested on: human subcutaneous adipocytes; test: O2 consumption rate (OCR), Seahorse XF24 with XF Palmitate-BSA Fatty Acid Oxidation kit, human subcutaneous adipocytes; type: cell-based; conditions: for basal OCR vs control adipocytes: basal conditions, rosiglitazone 100 nM or APT-110 50 nM, control BSA
Procedure: To characterize the effects of miR-22-3p inhibition on energy utilization in human subcutaneous adipocytes in culture, O2 consumption rate (OCR) was measured with the XF24 Analyzer (Seahorse Bioscience) using the XF Palmitate-BSA Fatty Acid Oxidation substrate kit during the successive addition of Oligomycin, FCCP, and Antimycin/Rotenone, following the manufacturer instructions.
Human subcutaneous pre-adipocytes (ZenBio, NC) were seeded into 96-well plates and differentiated for 7 days, then placed in maintenance medium according to the manufacturer's instructions. On Day 14, the adipocytes were transfected with 50 nM of the miR-22-3p inhibitor APT-110. Medium was exchanged every 2 to 3 days and Seahorse assay was performed on Day 21. Negative control was bovine serum albumin (BSA) and positive control was 100 nM rosiglitazone throughout the culture.

DIO C57BL/6 male mice = type: in vivo, mouse; set-up: Plasma adiponectin: unit not given here; conditions: for energy expenditure after i.p. injection: 0.5 mg/kg i.p.
Procedure: A dedicated study was conducted under contract at the University of Buckingham Institute of Translational Medicine (Pr. M A Cawthorne, Pr. P Trayhurn, Dr. C. Stocker) to assess the energetic and metabolic responses to the APT-110 miR-22-3p inhibitor treatment in adult Diet-Inducted-Obese (DIO) C57BL/6 male mice over the course of 3 months. Twenty-four DIO male C57BL/6 mice, who started on 60% high fat diet at the age of 7 weeks, were purchased at 15 weeks of age from the Jackson Laboratory, USA. The mice remained on a 60% high fat diet (Research Diet D12492) throughout the experiment. The mice were kept on a 12 h light/12 h dark light cycle with lights on at 08h00 and at a room temperature of 25±1° C. The mice were allocated to 2 groups of 12 mice each, (2 mice/cage) so that mean and standard deviation for body weight, blood glucose and serum insulin were similar across both groups. Mice were acclimated for two weeks before treatment initiation.
For oral glucose tolerance test, food was removed six hours prior to the start of the glucose tolerance test (09h00) and animals were placed in clean cages. Mice were dosed with glucose at T=0 minutes. Glucose was dissolved in water and given to the mice by oral gavage at a dose of 2.5 g/kg p.o. Blood samples […] were taken from the cut tip of the tail after the application of Lidocaine gel (Biorex Laboratories UK) for the analysis of glucose concentration at −30, 0, 30, 60, 120 and 180 minutes relative to glucose administration. Blood samples were also taken at −30 and +30 minutes for insulin analysis (Crystal Chem Inc. Cat INS90090). Food was returned to the animals at the end of the glucose tolerance test. Plasma nonesterified Fatty Acids (NEFA, Crystal Wako Chemicals Gmbh, Neuss, Germany, Cat 999-75406), leptin (Crystal Chem. Inc., Cat LEP90030) and adiponectin (Alpco Diagnostics, Salem, New Hampshire, Cat 47-ADPMS-E01) were measured as per the manufacturers' recommendations. Body fat and lean content was measured by Nuclear Magnetic Resonance (NMR). Comparison with calibrated standards allowed identification of types of tissue by their density. Dedicated software was used to quantify amounts of adipose and […]. The mice were gently restrained, sufficient to keep them quiescent during this non-invasive technique.
To measure physical activity, mice were kept in their original cages of 2 mice per cage. Recordings were taken using an infra-red recorder linked to a laptop. Recordings were made on the hour every hour from 7 pm until 8 am. Each recording was of 10-minute duration. Lights went out at 8 pm and came on again at 8 am. Analysis of activity was done by virtually drawing 2 lines across each cage (thus dividing them into 3 equal parts). Recordings were analyzed by eye and the number of times a line was broken by a mouse in each 10-minute segment was scored. Energy expenditure was measured at several time points during the course of the study by open-circuit indirect calorimetry with mice kept in their home cages (6 cages of 2 mice per experimental group (Arch, J. R., et al., 2006; Arch, J. R. and P. Trayhurn, 2013).
At the end of the study, tissues and organs were collected, then frozen for future gene expression analysis or placed in 10% neutral buffered formalin solution (Sigma-Aldrich Cat HT501128), then washed in PBS, pH 7.4 and transferred to 70% ethanol for subsequent processing for histologic and immunohistochemistry analyses.
In some studies, non-esterified fatty acids (NEFA), plasma leptin and adiponectin were also measured and oral glucose tolerance tests (OGTT) were performed. Oral glucose tolerance test was performed as follows: Six hours prior to the start of the glucose tolerance test (09h00), food was removed and animals were given clean cages. Mice were dosed with glucose at T=0 minutes. […]

[4] = Saenger 1989; cited from earlier work
DIO C57BL/6J male mice = test: APT-110 in 14-week old DIO mice on 60% high fat diet treated 6 weeks; type: in vivo, mouse
Procedure: A similar study was performed in 14-week old mice (n=9 per group) which were randomized into 2 groups according to similar body weights and kept on 60% high fat diet (Research Diet D12492) for 6 weeks. One group of mice received subcutaneous injections in the left inguinal fat pad of a custom-designed miR-22-3p inhibitor (APT-110, 18 nucleotides long, 15 mg/kg) on days 0, 2, and 4 of the first week, then once a week for the next 5 weeks. The other group kept on 60% high fat diet received saline injections.
Body composition was measured by NMR at the end of the study (week 6 of treatment). Fat mass was 30% lower in the APT-110 miR-22-3p inhibitor group on 60% fat diet than that in the control group on saline and 60% fat diet (11.29±0.87 vs. 16.11±0.87 grams, p<0.0017). Lean mass was similar in both groups at week 6 of treatment (21.74±0.99 vs. 22.33±0.63 grams).
DIO male C57BL/6J mice were started on a 60% high fat diet at the age of 6-week old and were randomized according to body weight into treatment groups (8 to 12 animals per group) at various ages. After acclimation for 1 to 2 weeks, the mice were administered subcutaneous injections of saline or a miR-22 antagomir in the left inguinal fat pad (injections on Days 0, 2, and 4, then once a week for up to 12 weeks) while they remained on the 60% high fat diet. In some studies, another control group of mice was switched back to a normal 10% fat chow at the time of treatment randomization.
Blood samples were collected by retro-orbital bleeds or cut tip of the tail. Mice underwent body composition analysis by NMR (Bruker LF50 BCA-Analyzer) while they were gently restrained to keep them quiet during this non-invasive measurement. Liver, heart, inguinal fat, perirenal or epididymal fat, and subscapular fat were weighed and collected for histology (10% formalin fixed, then transferred to 70% ethanol for shipment) and gene expression (flash frozen in duplicate). Spleens were weighed and discarded. Blood was collected and processed into serum or plasma at the time of necropsy by cardiocentesis. Serum level of alanine aminotransferase (ALT), aspartate aminotransferase (AST), glucose, insulin, cholesterol and triglycerides were measured.

[5] = Day −2 (before treatment), 6 hours fast
[6] = end of 12-week study, Mean ± SEM

## CN(CCOc1ccc(CC2SC(=O)NC2=O)cc1)c1ccccn1 (stereo not shown) [Rosiglitazone, reference compound]
[1]
  number of UCP1 positive cells: 58±2%
[2]
  cell density relative to miR-22-3p inhibitor condition: 3 times more cells
[3]; after FCCP, rosiglitazone 100 nM
  maximum respiration vs control: 4 fold
[3]
  basal OCR vs control adipocytes: 4 fold

## C[C@H](Cc1ccc2c(c1)OC(C(=O)[O-])(C(=O)[O-])O2)NC[C@H](O)c1cccc(Cl)c1.[Na+].[Na+] [CL316243, reference compound]
DIO C57BL/6 male mice; APT-110 group
  energy expenditure after i.p. injection: increased
DIO C57BL/6 male mice; control (saline) group
  energy expenditure after i.p. injection: increased

## Nc1ncnc2c1ncn2[C@@H]1O[C@H](CO)[C@@H](O)[C@H]1O [adenosine]
[4]
  pKa of the conjugate acid: 3.52

## 5′-5mCpsTpsTps2′OMeCpsTpsTps5mCpsApsAps2′OMeCpsTpsGpsGps5mCpsApsGps5mCpsT-3′ [APT-110]
DIO C57BL/6 male mice; Day 10 of treatment
  24-hr energy expenditure vs saline: did not show a difference
DIO C57BL/6 male mice; Day 11, confirmed on Day 28 and Day 52
  energy expenditure vs saline: increase in energy expenditure
DIO C57BL/6 male mice; Day 44, 6 hours fast
  Blood glucose: 9.01 ± 0.19 mmol/L
  Plasma adiponectin: 2.66 ± 0.15
  Plasma insulin: 295 ± 25 pmol/L
  Plasma leptin: 4.85 ± 0.42 nmol/L
DIO C57BL/6 male mice; Day 75, glucose 2.5 g/kg p.o., saline mice diabetic profile
  Oral Glucose Tolerance Test profile: normal profile
DIO C57BL/6 male mice; Day 79, 6 hours fast
  Blood glucose: 5.71 ± 0.18 mmol/L
  Plasma adiponectin: 3.16 ± 0.13
  Plasma insulin: 220 ± 17 pmol/L
  Plasma leptin: 4.21 ± 0.54 nmol/L
DIO C57BL/6 male mice; Day 85, 6-hour fast, p<0.0001
  Cholesterol: 4.67 ± 0.16 mmol/L
DIO C57BL/6 male mice; Day 85, 6-hour fast, p=0.003
  Non Esterified Fatty Acids: 1.71 ± 0.08 mmol/L
DIO C57BL/6 male mice; Day 85, 6-hour fast, p=0.11
  Triglycerides: 1.46 ± 0.08 mmol/L
DIO C57BL/6 male mice; [5]
  Blood glucose: 6.69 ± 0.27 mmol/L
  Plasma adiponectin: 3.16 ± 0.13
  Plasma insulin: 179 ± 18 pmol/L
  Plasma leptin: 3.11 ± 0.45 nmol/L
DIO C57BL/6 male mice; Week 12, Day 82
  fat mass difference vs saline (NMR): −12%
  lean mass (NMR): identical in both groups
DIO C57BL/6 male mice; average, day 11 to day 53
  total daily energy expenditure greater than saline: 13%
DIO C57BL/6 male mice; course of the 12-week study, control group developed insulin resistance
  insulin sensitivity (fasting Insulin/Glucose ratio over time): maintain the same level of insulin sensitivity
DIO C57BL/6 male mice; [6]
  Epdidymal fat weight: 1.8 ± 0.978 grams
  Inguinal fat weight: 3.166 ± 0.135 grams
  Liver weight: 2.442 ± 0.127 grams
  Peri-renal fat weight: 1.183 ± 0.096 grams
  Subscapular fat weight: 0.202 ± 0.020 grams
DIO C57BL/6 male mice; week 12 of treatment, 60% high fat diet
  weight gain vs mice receiving saline injections: −30%
DIO C57BL/6J male mice; 60% high fat diet, 15 mg/kg SC, saline 22%
  weight increase week 6 vs Week 0: 6%
DIO C57BL/6J male mice; Day 35 of treatment, saline 245±8
  blood glucose after fasting for 4 hours: 183 ± 11 mg/dL
DIO C57BL/6J male mice; Day 44 of treatment, at necropsy, saline 341±9
  random blood glucose: 212 ± 12 mg/dL
DIO C57BL/6J male mice; NMR, week 6
  fat mass lower than control group on saline: 30%
DIO C57BL/6J male mice; NMR, week 6, saline 16.11±0.87
  fat mass: 11.29±0.87 grams
DIO C57BL/6J male mice; NMR, week 6, saline 22.33±0.63
  lean mass: 21.74±0.99 grams
DIO C57BL/6J male mice; Week 0 (baseline)
  body weight: 34.15±0.53 grams
DIO C57BL/6J male mice; at necropsy, saline 164±6
  serum cholesterol: 110 ± 5 mg/dL
DIO C57BL/6J male mice; week 6, 60% high fat diet, saline 41.73±1.07
  body weight: 36.16±0.67 grams
[3]; APT-110 50 nM + palmitate
  non-mitochondrial respirations and proton leak on addition of palmitate: dramatic increase
[3]; APT-110 50 nM, assay Day 21
  maximum respiration increase: 33%
[3]
  basal OCR vs control adipocytes: 2 fold

## Cc1cn([C@H]2C[C@H](O)[C@@H](CO)O2)c(=O)[nH]c1=O [thymidine]
[4]
  pKa: 9.93

## Nc1nc2c(ncn2[C@@H]2O[C@H](CO)[C@@H](O)[C@H]2O)c(=O)[nH]1 [guanosine]
[4]
  pKa: 9.42
